Source: paper PMC11582101, “Unlocking the potential: unveiling tyrphostins with Michael-reactive cyanoacrylate motif as promising inhibitors of human 5-lipoxygenase” (Pflugers Archiv, 2024)
Several values for one entry are separate records, joined by “and”; a condition that tells them apart may be missing. Equal values may be shown once.

How the values were obtained:
[1] = target: T1, r5-LO_WT (Homo sapiens, UniProt P09917); assay: Covalent inhibitor binding by mass spectrometry, r5-LO_WT; settings: 20 µM protein, 100 µM compound, at least 1 h RT
T1 construct: made in house; host or cells: E. coli BL21 (DE3)
T1 sequence (P09917 1-674): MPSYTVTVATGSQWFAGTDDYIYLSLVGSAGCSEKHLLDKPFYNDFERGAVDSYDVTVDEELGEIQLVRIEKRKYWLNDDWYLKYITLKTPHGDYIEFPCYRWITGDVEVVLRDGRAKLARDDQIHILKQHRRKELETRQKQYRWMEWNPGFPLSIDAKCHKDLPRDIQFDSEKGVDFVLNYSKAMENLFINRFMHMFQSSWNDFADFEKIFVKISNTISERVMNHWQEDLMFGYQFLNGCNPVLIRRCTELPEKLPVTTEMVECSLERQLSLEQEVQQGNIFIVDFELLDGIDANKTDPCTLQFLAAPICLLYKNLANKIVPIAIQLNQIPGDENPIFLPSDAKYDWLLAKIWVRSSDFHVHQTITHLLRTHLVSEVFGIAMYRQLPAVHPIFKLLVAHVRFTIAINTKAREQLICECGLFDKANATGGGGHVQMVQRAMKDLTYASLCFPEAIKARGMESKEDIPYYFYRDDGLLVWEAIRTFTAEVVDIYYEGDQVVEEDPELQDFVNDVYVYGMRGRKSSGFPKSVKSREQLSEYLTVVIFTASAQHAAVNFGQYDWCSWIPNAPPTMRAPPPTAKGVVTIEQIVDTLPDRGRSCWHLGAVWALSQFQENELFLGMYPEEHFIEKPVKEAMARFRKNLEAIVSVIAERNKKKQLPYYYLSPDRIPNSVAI

[2] = target: T2, 12-LO (Homo sapiens, UniProt P18054); assay: 12-HETE formation in platelets; settings: 20 µM AA, 2.5 µM A23187, n = 3–6
T2 sequence (P18054 1-663): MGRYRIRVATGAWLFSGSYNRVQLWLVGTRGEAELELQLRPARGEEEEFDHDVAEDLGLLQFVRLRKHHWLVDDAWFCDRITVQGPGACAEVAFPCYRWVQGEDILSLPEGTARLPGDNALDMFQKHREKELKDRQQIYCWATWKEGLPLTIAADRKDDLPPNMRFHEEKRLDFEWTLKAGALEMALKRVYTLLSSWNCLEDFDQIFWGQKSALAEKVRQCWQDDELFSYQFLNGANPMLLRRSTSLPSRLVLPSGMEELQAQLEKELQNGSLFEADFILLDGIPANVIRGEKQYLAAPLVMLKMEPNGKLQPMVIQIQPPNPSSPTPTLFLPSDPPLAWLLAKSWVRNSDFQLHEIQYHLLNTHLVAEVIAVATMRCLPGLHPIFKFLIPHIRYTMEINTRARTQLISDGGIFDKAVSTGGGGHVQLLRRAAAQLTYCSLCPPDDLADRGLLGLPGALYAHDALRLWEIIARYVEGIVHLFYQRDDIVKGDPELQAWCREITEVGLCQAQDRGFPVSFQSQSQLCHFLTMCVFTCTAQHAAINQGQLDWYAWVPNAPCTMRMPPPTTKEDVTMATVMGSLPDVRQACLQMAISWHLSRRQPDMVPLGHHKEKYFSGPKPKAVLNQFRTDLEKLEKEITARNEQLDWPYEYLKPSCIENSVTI

[3] = test system: U2OS cells; settings: human, 10 µM
[4] = test system: 15-LO; assay: 15-HETE formation in intact PMNL; settings: read-out: IC50 for inhibition of 15-HETE formation, PMNL; intact PMNL, 20 µM AA, 2.5 µM A23187; (95% CI), n = 3–6
[5] = test system: Her2/ErbB2; set-up: method as in PMID 7892601; settings: original target of AG879; cited from earlier work
[6] = target: T3, 5-LO (Homo sapiens, UniProt P09917); assay: 5-LO product formation in intact PMNL; settings: IC50 for inhibition of 5-LO product formation, PMNL, intact PMNL, 20 µM AA, 2.5 µM A23187; (95% CI), n = 3–6
T3 sequence (P09917 1-674): T1 sequence (P09917 1-674)

In the case of `CC(C)(C)c1cc(/C=C(\C#N)C(N)=S)cc(C(C)(C)C)c1O` [AG879], the “inhibitor adducts to r5-LO_WT detected by mass spectrometry” value [1] is reported as “did not detect mass shifts”, the “IC50 for inhibition of 12-HETE formation, platelets” value [2] is reported as “no inhibition” and the “normalized healthy cell count” value [3] is reported as “around 75%”. For the same compound, the IC50 [4] was over 25000 nM, the IC50 [5] was 1000 nM and the IC50 [6] was 400 nM and 420 nM.
